The values that follow come from patent US12649723B2, “Carbonohydrazonoyl dicyanide compounds comprising 2 or more aryl or heteroaryl connected via linker and use thereof” (KOREA INSTITUTE OF SCIENCE AND TECHNOLOGY, priority 2020, dated 2026).

Usually pIC50 stands for the negative decadic logarithm of the IC50, by convention in mol/L. High values mean a small IC50, low ones a large IC50.

pIC50: −log10 of the molar value.

Data set [1] has as its system Tau-BiFC cells. The data set can be described thus: Cell viability (cytotoxicity) in tau-BiFC cells, count of stained nuclei. Format: cell-based. The settings on record: Forskolin-only group = 100% cell viability; for Cell viability (% @10 μM): compound 10 μM; for Cell viability: compounds marked *: measured at 3 μM. The protocol:
(§1) In order to select novel tau protein aggregation-inhibiting substances, tau-BiFC cell model, in which formation of tau oligomers in living cells is easily observed, was used. Tau-BiFC cells were aliquoted into a 384-well plate. On the next day, the cells were treated with each of the compounds prepared according to Examples 1 to 175 at concentrations of 1 μM, 3 μM, and 10 μM, together with Forskolin (at a treatment concentration of 30 μM), which is a compound inducing tau protein aggregation by activating tau […] PKA. After 48 hours, nuclei in the cells were stained using Hoechst (at a treatment concentration of 2 μg/mL), and BiFC fluorescence intensity was automatically measured using Operetta (PerkinElmer) to count stained nuclei in each well out of the entire well plate. The group treated only with Forskolin, which induces tau protein aggregation, was set to a reference point of a 100% tau protein-aggregated state, and the effects of the compounds were confirmed using the equation “BiFC fluorescence intensity due to compound synthesized according to embodiment of present invention/(fluorescence intensity of control group treated only with Forskolin inducing tau protein aggregation−fluorescence intensity of untreated control group)×100”. Furthermore, the degree of cytotoxicity induced by the newly synthesized compound was also measured based on the 100% cell viability of the group treated only with Forskolin as a reference, and the cytotoxicity value of each compound was calculated using the equation “(number of stained nuclei in group treated with compound/number of stained nuclei in group treated with Forskolin)×100”. Based on the treatment results, substances inhibiting intracellular tau protein aggregation were selected from a series of candidate groups showing a tau protein aggregation inhibition rate of 70% or more and cell viability of 100% at a compound treatment concentration of 10 μM or more.
(§2) In order to evaluate dose-dependent tau protein aggregation inhibition effects of the compounds selected according to Experimental Example 1 on tau protein aggregation, tau-BiFC cells were treated with the selected compounds at concentrations of 0.03 μM, […], 0.3 μM, 1 μM, 3 μM, 10 μM, and 30 μM, respectively, together with Forskolin (at a treatment concentration of 30 μM), which is a tau protein aggregation inducing substance. After 48 hours, tau protein aggregation reaction and degrees of cytotoxicity were analyzed by observing images of the cells. IC50 and toxicity of the compounds were analyzed by way of nonlinear regression analysis of prism software (Graph Pad).

For data set [2], the target named is T1, tau protein (Homo sapiens, UniProt P10636).
T1 construct: fused on or other part: Split fluorescent-protein halves for BiFC are fused to tau; In the published tau-BiFC line these are Venus VN173 and VC155
The data set can be described thus: Tau-BiFC cell model: inhibition of tau protein aggregation. Format: cell-based. The settings on record: for remaining activity at 10 µM / remaining activity at 3 µM: 48 h, Forskolin-only group = 100% tau protein-aggregated state; for remaining activity at 10 µM: compound 10 μM, BiFC fluorescence, read-out: Response (% @10 μM); for pIC50: Tau BiFC in cells, with Forskolin 30 μM, 48 hours; for remaining activity at 3 µM: compounds marked *: measured at 3 μM, read-out: Response. The protocol: as §1, §2

T1 sequence (P10636 2-441 isoform P10636-8 limits assumed): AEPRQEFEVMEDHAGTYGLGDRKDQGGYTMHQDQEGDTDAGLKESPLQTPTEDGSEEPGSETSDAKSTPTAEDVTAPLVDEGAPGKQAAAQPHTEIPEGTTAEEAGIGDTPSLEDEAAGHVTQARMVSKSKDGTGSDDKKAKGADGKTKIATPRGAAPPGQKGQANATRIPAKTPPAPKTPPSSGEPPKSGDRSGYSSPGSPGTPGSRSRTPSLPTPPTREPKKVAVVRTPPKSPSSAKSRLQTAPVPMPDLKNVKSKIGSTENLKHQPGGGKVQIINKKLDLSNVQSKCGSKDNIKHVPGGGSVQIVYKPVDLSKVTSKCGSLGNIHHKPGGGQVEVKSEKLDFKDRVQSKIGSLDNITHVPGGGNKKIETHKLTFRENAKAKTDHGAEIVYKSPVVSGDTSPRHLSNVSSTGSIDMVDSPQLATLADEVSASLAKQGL

For `N#CC(C#N)=NNc1ccc(OCCc2ccc(C(F)(F)F)cc2)nc1` [Compound 103, (6-(4-(trifluoromethyl)phenethoxy)pyridin-3-yl)carbonohydrazonoyl dicyanide], the “Cell viability (% @10 μM)” value in data set [1] is recorded as 37.9%. Also, in data set [2], the remaining activity at 10 µM was determined as 0% and the pIC50 is 5.63.
Turning to `N#CC(C#N)=NNc1ccc(C(=O)Nc2ncccn2)nc1` [Compound 43, (6-(pyrimidin-2-ylcarbamoyl)pyridin-3-yl)carbonohydrazonoyl dicyanide], in data set [1], the “Cell viability (% @10 μM)” value amounted to 168.6%. The remaining activity at 10 µM in data set [2] was determined as 3%.
For `N#CC(C#N)=NNc1ccc(Oc2ccccc2)c(C(F)(F)F)c1` [Compound 73, (4-phenoxy-3-(trifluoromethyl)phenyl)carbonohydrazonoyl dicyanide], the “Cell viability (% @10 μM)” value in data set [1] is 49.6%. Besides, the remaining activity at 10 µM in data set [2] stood at 0%.
As to `N#CC(C#N)=NNc1ccc(Oc2ccccn2)cc1` [Compound 83, (4-(pyridin-2-yloxy)phenyl)carbonohydrazonoyl dicyanide], the “Cell viability (% @10 μM)” value in data set [1] is reported as 104%. For the same compound, in data set [2], the remaining activity at 10 µM amounted to 0% and the negative logarithm of the IC50 (pIC50) was 5.94.
For `N#CC(C#N)=NNc1ccc(OCc2cnccn2)cc1` [Compound 125, (4-(pyrazin-2-ylmethoxy)phenyl)carbonohydrazonoyl dicyanide] the same measures were 140.5%, 0% and 5.64.
With `Cc1cnc(NC(=O)c2ccc(NN=C(C#N)C#N)cn2)cn1` [Compound 36, (6-(5-methylpyrazin-2-ylcarbamoyl)pyridin-3-yl)carbonohydrazonoyl dicyanide], in data set [1], the “Cell viability (% @10 μM)” value was 86.9%. Besides, in data set [2], the remaining activity at 10 µM is 35.9%.
The corresponding values for `Cc1cnc(C(=O)Nc2ccc(NN=C(C#N)C#N)nc2)cn1` [Compound 14, (5-(5-methylpyrazine-2-carboxamido)pyridin-2-yl)carbonohydrazonoyl dicyanide] are 102% and 147%.
Consider `N#CC(C#N)=NNc1ccc(Oc2ccc(C#N)cc2)cc1` [Compound 87, (4-(4-cyanophenoxy)phenyl)carbonohydrazonoyl dicyanide], for which the “Cell viability (% @10 μM)” value in data set [1] turned out to be 39.4%. Also, in data set [2], the remaining activity at 10 µM stood at 0% and the pIC50 is 5.91.
The corresponding values for `N#CC(C#N)=NNc1ccc(OCCc2ccccc2)c(C(F)(F)F)c1` [Compound 101, (4-phenethoxy-3-(trifluoromethyl)phenyl)carbonohydrazonoyl dicyanide] are 30.1%, 0% and 6.02.
Regarding `Cc1cnc(C(=O)Nc2ccc(NN=C(C#N)C#N)c(Cl)c2)cn1` [Compound 5, (2-chloro-4-(5-methylpyrazine-2-carboxamido)phenyl)carbonohydrazonoyl dicyanide], in data set [1], the “Cell viability (% @10 μM)” value is reported as 61.2%. The remaining activity at 10 µM in data set [2] amounted to 14.5%.
With `Cc1ccc(NC(=O)c2ccc(NN=C(C#N)C#N)cc2)cn1` [Compound 47, (4-(6-methylpyridin-3-ylcarbamoyl)phenyl)carbonohydrazonoyl dicyanide], in data set [1], the “Cell viability (% @10 μM)” value is listed as 122.7%. Also, in data set [2], the remaining activity at 10 µM was 0% and the pIC50 is 5.59.
Consider `COc1cc(NN=C(C#N)C#N)ccc1C(=O)Nc1cncc(C)n1` [Compound 105, (3-methoxy-4-(6-methylpyrazin-2-ylcarbamoyl)phenyl)carbonohydrazonoyl dicyanide], for which the “Cell viability (% @10 μM)” value in data set [1] is on record as 142.9%. Further, in data set [2], the remaining activity at 10 µM was found to be 0% and the negative-log IC50 (pIC50) is 6.40.
For `Cc1ccc(NC(=O)c2ccc(NN=C(C#N)C#N)cn2)cc1` [Compound 34, (6-(p-tolylcarbamoyl)pyridin-3-yl)carbonohydrazonoyl dicyanide] the same measures were 88.1%, 76% and 5.05.
With `CC(Oc1ccc(NN=C(C#N)C#N)cc1)c1ccc(C(F)(F)F)cc1` (stereo not shown) [Compound 139, (4-(1-(4-(trifluoromethyl)phenyl)ethoxy)phenyl)carbonohydrazonoyl dicyanide], in data set [1], the Cell viability came out at 123%. For the same compound, the remaining activity at 3 µM in data set [2] came to 39%.
As for `CN(N=C(C#N)C#N)c1ccc(Oc2ccccc2)c(C(F)(F)F)c1` [Compound 78, methyl(4-phenoxy-3-(trifluoromethyl)phenyl)carbonohydrazonoyl dicyanide], in data set [1], the “Cell viability (% @10 μM)” value amounted to 74%. Moreover, the remaining activity at 10 µM in data set [2] turned out to be 69.6%.
For the compound `Cc1cnc(C(=O)Nc2ccc(NN=C(C#N)C#N)cc2Cl)cn1` [Compound 11, (3-chloro-4-(5-methylpyrazine-2-carboxamido)phenyl)carbonohydrazonoyl dicyanide], the “Cell viability (% @10 μM)” value in data set [1] turned out to be 82.5%. Besides, in data set [2], the remaining activity at 10 µM stood at 0% and the negative-log IC50 (pIC50) was 6.96.
`N#CC(C#N)=NNc1ccc(NC(=O)c2ccccc2)nc1` [Compound 15, (6-benzamidopyridin-3-yl)carbonohydrazonoyl dicyanide]: the “Cell viability (% @10 μM)” value in data set [1] is 79.9%. Besides, in data set [2], the remaining activity at 10 µM is 0% and the pIC50 is 7.05.
With `Cc1cc(NN=C(C#N)C#N)ccc1OCc1ccccc1` [Compound 141, (4-(benzyloxy)-3-methylphenyl)carbonohydrazonoyl dicyanide], in data set [1], the Cell viability is listed as 109%. In data set [2], the remaining activity at 3 µM was -25% and the pIC50 was 6.06.
As to `COc1ccc(NC(=O)c2ccc(NN=C(C#N)C#N)cn2)cc1` [Compound 35, (6-(4-methoxyphenylcarbamoyl)pyridin-3-yl)carbonohydrazonoyl dicyanide], the “Cell viability (% @10 μM)” value in data set [1] is 97.9%. For the same compound, the remaining activity at 10 µM in data set [2] was determined as 34.2%.
As for `Cc1cnc(C(=O)Nc2ccc(NN=C(C#N)C#N)cc2)cn1` [Compound 2, (4-(5-methylpyrazine-2-carboxamido)phenyl)carbonohydrazonoyl dicyanide], the “Cell viability (% @10 μM)” value in data set [1] is reported as 71.5%. In data set [2], the remaining activity at 10 µM was found to be 0% and the negative logarithm of the IC50 (pIC50) was 5.85.
The corresponding values for `N#CC(C#N)=NNc1ccc(NC(=O)c2ccccc2C(F)(F)F)nc1` [Compound 28, (6-(2-(trifluoromethyl)benzamido)pyridin-3-yl)carbonohydrazonoyl dicyanide] are 125.8%, 0% and 6.27.
`Cc1cccc(C(=O)Nc2ccc(NN=C(C#N)C#N)cn2)c1` [Compound 24, (6-(3-methylbenzamido)pyridin-3-yl)carbonohydrazonoyl dicyanide]: in data set [1], the “Cell viability (% @10 μM)” value came out at 103.9%. Moreover, in data set [2], the remaining activity at 10 µM turned out to be 0% and the negative-log IC50 (pIC50) is over 6.52.
In the case of `Cc1cncc(NC(=O)c2ccc(NN=C(C#N)C#N)cc2C)n1` [Compound 54, (3-methyl-4-(6-methylpyrazin-2-ylcarbamoyl)phenyl)carbonohydrazonoyl dicyanide], the “Cell viability (% @10 μM)” value in data set [1] worked out at 116%. The remaining activity at 10 µM in data set [2] stood at 8.3%.
Regarding `N#CC(C#N)=NNc1ccc(Oc2ccccc2C#N)cc1` [Compound 86, (4-(2-cyanophenoxy)phenyl)carbonohydrazonoyl dicyanide], the “Cell viability (% @10 μM)” value in data set [1] was 72.6%. Also, in data set [2], the remaining activity at 10 µM turned out to be 0% and the negative-log IC50 (pIC50) is 5.67.
Consider `Cc1cnc(NS(=O)(=O)c2ccc(NN=C(C#N)C#N)cc2)cn1` [Compound 67, (4-(N-(5-methylpyrazin-2-yl)sulfamoyl)phenyl)carbonohydrazonoyl dicyanide], for which the “Cell viability (% @10 μM)” value in data set [1] turned out to be 108.4%. The remaining activity at 10 µM in data set [2] came to 68.2%.
For `Cc1cncc(NC(=O)c2ccc(NN=C(C#N)C#N)cn2)n1` [Compound 41, (6-(6-methylpyrazin-2-ylcarbamoyl)pyridin-3-yl)carbonohydrazonoyl dicyanide] the same measures were 115.2% and 0%.
As to `N#CC(C#N)=NNc1ccc(Oc2ccccc2F)cc1` [Compound 93, (4-(2-fluorophenoxy)phenyl)carbonohydrazonoyl dicyanide], in data set [1], the “Cell viability (% @10 μM)” value turned out to be 66.5%. In data set [2], the remaining activity at 10 µM worked out at 0% and the pIC50 was 5.89.
